How the values were obtained:
Format in all cases: functional
SK-MEL-28 = test: Cytotoxicity against human SK-MEL-28 cells assessed as growth inhibition at 10 uM after 48 hrs by coulter counter analysis; details: SK-MEL-28, 48 h, read-out: GI
MCF7 = test: Cytotoxicity against human MCF7 cells assessed as growth inhibition at 10 uM after 48 hrs by coulter counter analysis; details: MCF7, 48 h, read-out: GI
NCI-H226 = test: Cytotoxicity against human NCI-H226 cells assessed as growth inhibition at 10 uM after 48 hrs by coulter counter analysis; details: NCI-H226, 48 h, read-out: GI
M14 = test: Cytotoxicity against human M14 cells assessed as growth inhibition at 10 uM after 48 hrs by coulter counter analysis; details: M14, 48 h, read-out: GI
ACHN = test: Cytotoxicity against human ACHN cells assessed as growth inhibition at 10 uM after 48 hrs by coulter counter analysis; details: read-out: GI
SF-295 = test: Cytotoxicity against human SF295 cells assessed as growth inhibition at 10 uM after 48 hrs by coulter counter analysis; details: SF-295, 48 h, read-out: GI
UACC-257 = test: Cytotoxicity against human UACC257 cells assessed as growth inhibition at 10 uM after 48 hrs by coulter counter analysis; details: UACC-257, 48 h, read-out: GI
DU-145 = test: Cytotoxicity against human DU145 cells assessed as growth inhibition at 10 uM after 48 hrs by coulter counter analysis; details: DU-145, 48 h, read-out: GI
CAKI-1 = test: Cytotoxicity against human Caki1 cells assessed as growth inhibition at 10 uM after 48 hrs by coulter counter analysis; details: CAKI-1, 48 h, read-out: GI
MDA-MB-468 = test: Cytotoxicity against human MDA-MB-468 cells assessed as growth inhibition at 10 uM after 48 hrs by coulter counter analysis; details: MDA-MB-468, 48 h, read-out: GI
HL-60(TB) = test: Cytotoxicity against human HL-60(TB) cells assessed as growth inhibition at 10 uM after 48 hrs by coulter counter analysis; details: HL-60, 48 h, read-out: GI
MOLT-4 = test: Cytotoxicity against human MOLT4 cells assessed as growth inhibition at 10 uM after 48 hrs by coulter counter analysis; details: MOLT-4, 48 h, read-out: GI
SN12C = test: Cytotoxicity against human SN12C cells assessed as growth inhibition at 10 uM after 48 hrs by coulter counter analysis; details: read-out: GI
SK-MEL-5 = test: Cytotoxicity against human SK-MEL-5 cells assessed as growth inhibition at 10 uM after 48 hrs by coulter counter analysis; details: SK-MEL-5, 48 h, read-out: GI
MDA-MB-231 = test: Cytotoxicity against human MDA-MB-231 cells assessed as growth inhibition at 10 uM after 48 hrs by coulter counter analysis; details: MDA-MB-231, 48 h, read-out: GI
NCI-H522 = test: Cytotoxicity against human NCI-H522 cells assessed as growth inhibition at 10 uM after 48 hrs by coulter counter analysis; details: NCI-H522, 48 h, read-out: GI
[1] = Cytotoxicity against human ovarian cancer cells after 48 hrs by coulter counter analysis; details: Cancer cell lines
[2] = Cytotoxicity against human leukemia cells after 48 hrs by coulter counter analysis; details: Leukemia cell
[3] = Cytotoxicity against human breast cancer cells after 48 hrs by coulter counter analysis; details: Cancer cell lines
[4] = Cytotoxicity against human renal cancer cells after 48 hrs by coulter counter analysis; details: Cancer cell lines
[5] = Cytotoxicity against human non-small cell lung cancer cells after 48 hrs by coulter counter analysis; details: Cancer cell lines
[6] = Cytotoxicity against human CNS cancer cells after 48 hrs by coulter counter analysis; details: Cancer cell lines
[7] = Cytotoxicity against human melanoma cells after 48 hrs by coulter counter analysis; details: Melanoma cell
[8] = Cytotoxicity against human prostate cancer cells after 48 hrs by coulter counter analysis; details: Cancer cell lines
[9] = Cytotoxicity against human colon cancer cells after 48 hrs by coulter counter analysis; details: Cancer cell lines
[10] = read-out: LC50 (the source's name)

## O=C(CSc1nc2ccccc2c(=O)n1CCc1ccccc1)Nc1ccccc1
SK-MEL-28
  inhibition of growth at 10 µM: < 10%
MCF7
  inhibition of growth at 10 µM: 19%
NCI-H226
  inhibition of growth at 10 µM: < 10%
M14
  inhibition of growth at 10 µM: 10%
ACHN
  inhibition of growth at 10 µM: < 10%
SF-295
  inhibition of growth at 10 µM: < 10%
UACC-257
  inhibition of growth at 10 µM: < 10%
DU-145
  inhibition of growth at 10 µM: < 10%
CAKI-1
  inhibition of growth at 10 µM: < 10%
MDA-MB-468
  inhibition of growth at 10 µM: 18%
HL-60(TB)
  inhibition of growth at 10 µM: 17%
MOLT-4
  inhibition of growth at 10 µM: < 10%
SN12C
  inhibition of growth at 10 µM: < 10%
SK-MEL-5
  inhibition of growth at 10 µM: 13%
MDA-MB-231
  inhibition of growth at 10 µM: 35%
NCI-H522
  inhibition of growth at 10 µM: 10%

## COc1cc(NC(=O)CCSc2nc3ccccc3c(=O)n2CCc2ccccc2)cc(OC)c1OC
SK-MEL-28
  inhibition of growth at 10 µM: 42%
MCF7
  inhibition of growth at 10 µM: 33%
NCI-H226
  inhibition of growth at 10 µM: 10%
M14
  inhibition of growth at 10 µM: 40%
ACHN
  inhibition of growth at 10 µM: 21%
SF-295
  inhibition of growth at 10 µM: 10%
UACC-257
  inhibition of growth at 10 µM: 72%
DU-145
  inhibition of growth at 10 µM: < 10%
CAKI-1
  inhibition of growth at 10 µM: 74%
MDA-MB-468
  inhibition of growth at 10 µM: 27%
HL-60(TB)
  inhibition of growth at 10 µM: 27%
MOLT-4
  inhibition of growth at 10 µM: 40%
SN12C
  inhibition of growth at 10 µM: 16%
SK-MEL-5
  inhibition of growth at 10 µM: 31%
MDA-MB-231
  inhibition of growth at 10 µM: 66%
NCI-H522
  inhibition of growth at 10 µM: 52%

## Cc1ccc(NC(=O)CSc2nc3ccccc3c(=O)n2CCc2ccccc2)cc1
SK-MEL-28
  inhibition of growth at 10 µM: 22%
MCF7
  inhibition of growth at 10 µM: 23%
NCI-H226
  inhibition of growth at 10 µM: < 10%
M14
  inhibition of growth at 10 µM: < 10%
ACHN
  inhibition of growth at 10 µM: 21%
SF-295
  inhibition of growth at 10 µM: 12%
UACC-257
  inhibition of growth at 10 µM: 17%
DU-145
  inhibition of growth at 10 µM: < 10%
CAKI-1
  inhibition of growth at 10 µM: 13%
MDA-MB-468
  inhibition of growth at 10 µM: 29%
HL-60(TB)
  inhibition of growth at 10 µM: < 10%
MOLT-4
  inhibition of growth at 10 µM: < 10%
SN12C
  inhibition of growth at 10 µM: < 10%
SK-MEL-5
  inhibition of growth at 10 µM: 22%
MDA-MB-231
  inhibition of growth at 10 µM: 23%
NCI-H522
  inhibition of growth at 10 µM: 22%

## COc1cc(NC(=O)CSc2nc3ccccc3c(=O)n2CCc2ccccc2)cc(OC)c1OC
[1]
  GI50: 2.55 µM
  TGI: 52 µM
SK-MEL-28
  inhibition of growth at 10 µM: 63%
MCF7
  inhibition of growth at 10 µM: 49%
[2]
  GI50: > 100 µM
  TGI: > 100 µM
NCI-H226
  inhibition of growth at 10 µM: > 100%
M14
  inhibition of growth at 10 µM: 68%
ACHN
  inhibition of growth at 10 µM: > 100%
SF-295
  inhibition of growth at 10 µM: 49%
[3]
  GI50: 2.77 µM
  TGI: 44.1 µM
[4]
  GI50: 1.77 µM
  TGI: 3.63 µM
UACC-257
  inhibition of growth at 10 µM: 61%
DU-145
  inhibition of growth at 10 µM: 55%
[5]
  GI50: 2.04 µM
  TGI: 43.1 µM
[5]; [10]
  CC50: > 100 µM
[6]
  GI50: 2.73 µM
  TGI: 13.5 µM
[6]; [10]
  CC50: 75 µM
MDA-MB-468
  inhibition of growth at 10 µM: 71%
[7]
  GI50: 3.3 µM
  TGI: 76.6 µM
SN12C
  inhibition of growth at 10 µM: 75%
SK-MEL-5
  inhibition of growth at 10 µM: > 100%
MDA-MB-231
  inhibition of growth at 10 µM: > 100%
[8]
  GI50: 4.98 µM
  TGI: > 100 µM
[8]; [10]
  CC50: > 100 µM
[9]
  GI50: 2.02 µM
  TGI: > 100 µM
[9]; [10]
  CC50: > 100 µM
NCI-H522
  inhibition of growth at 10 µM: > 100%

## CCOc1ccc(NC(=O)CSc2nc3ccccc3c(=O)n2CCc2ccccc2)cc1
SK-MEL-28
  inhibition of growth at 10 µM: < 10%
MCF7
  inhibition of growth at 10 µM: 12%
NCI-H226
  inhibition of growth at 10 µM: 31%
M14
  inhibition of growth at 10 µM: 10%
ACHN
  inhibition of growth at 10 µM: 12%
SF-295
  inhibition of growth at 10 µM: < 10%
UACC-257
  inhibition of growth at 10 µM: < 10%
DU-145
  inhibition of growth at 10 µM: < 10%
CAKI-1
  inhibition of growth at 10 µM: 12%
MDA-MB-468
  inhibition of growth at 10 µM: 10%
MOLT-4
  inhibition of growth at 10 µM: 10%
SN12C
  inhibition of growth at 10 µM: < 10%
SK-MEL-5
  inhibition of growth at 10 µM: < 10%
MDA-MB-231
  inhibition of growth at 10 µM: 25%
NCI-H522
  inhibition of growth at 10 µM: 11%

## O=C(CSc1nc2ccccc2c(=O)n1CCc1ccccc1)Nc1ccc(F)cc1
SK-MEL-28
  inhibition of growth at 10 µM: < 10%
MCF7
  inhibition of growth at 10 µM: 18%
NCI-H226
  inhibition of growth at 10 µM: < 10%
M14
  inhibition of growth at 10 µM: 18%
ACHN
  inhibition of growth at 10 µM: 16%
SF-295
  inhibition of growth at 10 µM: 13%
UACC-257
  inhibition of growth at 10 µM: < 10%
DU-145
  inhibition of growth at 10 µM: < 10%
CAKI-1
  inhibition of growth at 10 µM: 22%
MDA-MB-468
  inhibition of growth at 10 µM: 23%
HL-60(TB)
  inhibition of growth at 10 µM: 25%
MOLT-4
  inhibition of growth at 10 µM: 26%
SN12C
  inhibition of growth at 10 µM: 19%
SK-MEL-5
  inhibition of growth at 10 µM: 16%
MDA-MB-231
  inhibition of growth at 10 µM: 22%
NCI-H522
  inhibition of growth at 10 µM: 31%

## O=C(CSc1nc2ccccc2c(=O)n1CCc1ccccc1)Oc1ccccc1
SK-MEL-28
  inhibition of growth at 10 µM: < 10%
MCF7
  inhibition of growth at 10 µM: 15%
M14
  inhibition of growth at 10 µM: 13%
ACHN
  inhibition of growth at 10 µM: 10%
SF-295
  inhibition of growth at 10 µM: 20%
UACC-257
  inhibition of growth at 10 µM: 11%
CAKI-1
  inhibition of growth at 10 µM: < 10%
MDA-MB-468
  inhibition of growth at 10 µM: < 10%
HL-60(TB)
  inhibition of growth at 10 µM: 11%
MOLT-4
  inhibition of growth at 10 µM: 23%
SN12C
  inhibition of growth at 10 µM: 16%
SK-MEL-5
  inhibition of growth at 10 µM: < 10%
MDA-MB-231
  inhibition of growth at 10 µM: 15%
NCI-H522
  inhibition of growth at 10 µM: 37%

## O=C(CSc1nc2ccccc2c(=O)n1CCc1ccccc1)Oc1ccc(Cl)cc1
SK-MEL-28
  inhibition of growth at 10 µM: < 10%
MCF7
  inhibition of growth at 10 µM: 34%
NCI-H226
  inhibition of growth at 10 µM: 13%
M14
  inhibition of growth at 10 µM: < 10%
ACHN
  inhibition of growth at 10 µM: < 10%
SF-295
  inhibition of growth at 10 µM: < 10%
UACC-257
  inhibition of growth at 10 µM: < 10%
DU-145
  inhibition of growth at 10 µM: < 10%
CAKI-1
  inhibition of growth at 10 µM: 27%
MDA-MB-468
  inhibition of growth at 10 µM: < 10%
SN12C
  inhibition of growth at 10 µM: < 10%
SK-MEL-5
  inhibition of growth at 10 µM: < 10%
MDA-MB-231
  inhibition of growth at 10 µM: 33%
NCI-H522
  inhibition of growth at 10 µM: 37%

## CCOC(=O)c1ccc(NC(=O)CSc2nc3ccccc3c(=O)n2CCc2ccccc2)cc1
SK-MEL-28
  inhibition of growth at 10 µM: 14%
MCF7
  inhibition of growth at 10 µM: 12%
NCI-H226
  inhibition of growth at 10 µM: 25%
M14
  inhibition of growth at 10 µM: 21%
ACHN
  inhibition of growth at 10 µM: 21%
SF-295
  inhibition of growth at 10 µM: 25%
UACC-257
  inhibition of growth at 10 µM: 29%
DU-145
  inhibition of growth at 10 µM: 10%
CAKI-1
  inhibition of growth at 10 µM: 19%
MDA-MB-468
  inhibition of growth at 10 µM: 18%
SN12C
  inhibition of growth at 10 µM: < 10%
SK-MEL-5
  inhibition of growth at 10 µM: 21%
MDA-MB-231
  inhibition of growth at 10 µM: 48%
NCI-H522
  inhibition of growth at 10 µM: 26%
